The nature of data set [1]: Inhibition of PDE10.
Data set [2] concerns the target 3',5'-cyclic-AMP phosphodiesterase 4B (Homo sapiens, UniProt Q07343). The data set can be described thus: Inhibition of PDE4B.
In data set [3] the target is Dual 3',5'-cyclic-AMP and -GMP phosphodiesterase 11A (Homo sapiens, UniProt Q9HCR9). The data set can be described thus: Inhibition of PDE11.
Data set [4] addresses 3',5'-cyclic-AMP phosphodiesterase 4D (Homo sapiens, UniProt Q08499). The data set can be described thus: Inhibition of PDE4D.
For a further data set, the target named is Cytochrome P450 2C9 (Homo sapiens, UniProt P11712). The experiment in a line: Inhibition of CYP2C9. Type of data set: ADME.
Another data set has as its system Rattus norvegicus. The data set can be described thus: Antiinflammatory activity in po dosed rat assessed as inhibition of LPS-induced pulmonary inflammation. It is filed as functional.
A further data set concerns the target Cytochrome P450 2C19 (Homo sapiens, UniProt P33261). The experiment in a line: Inhibition of CYP2C19. It is filed as ADME.
The nature of data set [5]: Oral bioavailability in rat at 10 mg/kg. It is filed as ADME, organism-based. The note with it: in vivo.
A short description of data set [6]: Inhibition of PDE4-mediated TNF-alpha release by cell based assay.
The target of another data set is Cytochrome P450 2D6 (Homo sapiens, UniProt P10635). The data set can be described thus: Inhibition of CYP2D6. It is filed as ADME.
The next data set concerns the target Cytochrome P450 3A4 (Homo sapiens, UniProt P08684). The data set can be described thus: Inhibition of CYP3A4. Type of data set: ADME.
Data set [7] in a line: Cmax in rat at 10 mg/kg, po. It is filed as ADME, organism-based. Further details: dose 10 mg/kg, route oral. To be noted: in vivo.

Where only a bound is given, the exact number is not on record here.

Chain of 3',5'-cyclic-AMP phosphodiesterase 4B (Q07343 whole entry): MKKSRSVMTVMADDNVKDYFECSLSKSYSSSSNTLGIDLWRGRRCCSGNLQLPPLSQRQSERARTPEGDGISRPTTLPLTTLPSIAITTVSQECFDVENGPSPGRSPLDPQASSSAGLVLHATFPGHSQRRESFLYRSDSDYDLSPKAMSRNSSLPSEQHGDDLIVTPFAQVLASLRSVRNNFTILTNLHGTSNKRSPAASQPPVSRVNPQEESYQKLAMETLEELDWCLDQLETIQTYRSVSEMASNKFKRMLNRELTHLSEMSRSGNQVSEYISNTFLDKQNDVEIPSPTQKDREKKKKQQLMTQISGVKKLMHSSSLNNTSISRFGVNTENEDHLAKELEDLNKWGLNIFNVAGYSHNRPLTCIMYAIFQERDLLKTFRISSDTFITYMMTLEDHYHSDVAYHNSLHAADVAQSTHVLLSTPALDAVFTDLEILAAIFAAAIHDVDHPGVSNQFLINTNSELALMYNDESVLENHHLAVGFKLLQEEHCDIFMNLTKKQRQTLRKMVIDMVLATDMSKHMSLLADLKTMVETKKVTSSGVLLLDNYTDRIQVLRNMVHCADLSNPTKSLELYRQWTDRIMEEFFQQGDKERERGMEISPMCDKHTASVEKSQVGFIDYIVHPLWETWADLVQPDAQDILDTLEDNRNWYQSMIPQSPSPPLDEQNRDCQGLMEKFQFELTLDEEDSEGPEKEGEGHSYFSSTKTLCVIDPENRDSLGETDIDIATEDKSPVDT
Chain of Dual 3',5'-cyclic-AMP and -GMP phosphodiesterase 11A (Q9HCR9 whole entry): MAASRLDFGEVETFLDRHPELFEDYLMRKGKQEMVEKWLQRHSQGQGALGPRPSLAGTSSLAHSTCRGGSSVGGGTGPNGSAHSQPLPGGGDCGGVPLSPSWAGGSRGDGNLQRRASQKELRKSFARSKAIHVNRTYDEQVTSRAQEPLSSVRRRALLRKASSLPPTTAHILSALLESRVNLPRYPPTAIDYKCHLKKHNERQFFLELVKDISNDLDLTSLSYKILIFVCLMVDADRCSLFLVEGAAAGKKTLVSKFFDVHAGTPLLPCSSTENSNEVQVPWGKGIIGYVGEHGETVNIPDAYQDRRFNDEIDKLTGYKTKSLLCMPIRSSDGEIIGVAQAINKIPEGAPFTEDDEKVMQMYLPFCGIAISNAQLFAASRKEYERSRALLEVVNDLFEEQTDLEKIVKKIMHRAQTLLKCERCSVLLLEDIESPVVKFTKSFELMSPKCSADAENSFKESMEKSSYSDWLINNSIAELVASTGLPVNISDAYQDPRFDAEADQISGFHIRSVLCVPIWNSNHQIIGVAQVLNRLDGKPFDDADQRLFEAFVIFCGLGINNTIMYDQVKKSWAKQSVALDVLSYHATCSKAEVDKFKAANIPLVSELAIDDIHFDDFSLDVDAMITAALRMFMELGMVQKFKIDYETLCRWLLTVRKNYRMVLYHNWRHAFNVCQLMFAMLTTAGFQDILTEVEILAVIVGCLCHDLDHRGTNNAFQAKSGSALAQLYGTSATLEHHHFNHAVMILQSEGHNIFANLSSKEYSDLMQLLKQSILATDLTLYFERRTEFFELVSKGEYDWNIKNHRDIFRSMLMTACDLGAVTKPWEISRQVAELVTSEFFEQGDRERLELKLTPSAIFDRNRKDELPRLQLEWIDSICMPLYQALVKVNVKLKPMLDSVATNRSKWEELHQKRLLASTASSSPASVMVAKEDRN
Chain of Cytochrome P450 2D6 (P10635 whole entry): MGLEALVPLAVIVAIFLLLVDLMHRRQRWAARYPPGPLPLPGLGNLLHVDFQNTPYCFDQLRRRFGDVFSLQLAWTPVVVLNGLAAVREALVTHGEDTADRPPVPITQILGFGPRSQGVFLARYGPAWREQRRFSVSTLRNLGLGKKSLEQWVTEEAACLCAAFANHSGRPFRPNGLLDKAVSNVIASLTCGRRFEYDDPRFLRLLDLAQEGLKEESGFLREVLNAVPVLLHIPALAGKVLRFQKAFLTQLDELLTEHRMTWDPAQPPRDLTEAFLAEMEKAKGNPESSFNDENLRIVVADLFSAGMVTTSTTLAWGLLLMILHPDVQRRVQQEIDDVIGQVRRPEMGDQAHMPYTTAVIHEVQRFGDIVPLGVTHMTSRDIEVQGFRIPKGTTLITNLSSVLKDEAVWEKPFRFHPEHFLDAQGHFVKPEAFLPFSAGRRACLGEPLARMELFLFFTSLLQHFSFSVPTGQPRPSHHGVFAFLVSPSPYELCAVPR
Chain of Cytochrome P450 3A4 (P08684 whole entry): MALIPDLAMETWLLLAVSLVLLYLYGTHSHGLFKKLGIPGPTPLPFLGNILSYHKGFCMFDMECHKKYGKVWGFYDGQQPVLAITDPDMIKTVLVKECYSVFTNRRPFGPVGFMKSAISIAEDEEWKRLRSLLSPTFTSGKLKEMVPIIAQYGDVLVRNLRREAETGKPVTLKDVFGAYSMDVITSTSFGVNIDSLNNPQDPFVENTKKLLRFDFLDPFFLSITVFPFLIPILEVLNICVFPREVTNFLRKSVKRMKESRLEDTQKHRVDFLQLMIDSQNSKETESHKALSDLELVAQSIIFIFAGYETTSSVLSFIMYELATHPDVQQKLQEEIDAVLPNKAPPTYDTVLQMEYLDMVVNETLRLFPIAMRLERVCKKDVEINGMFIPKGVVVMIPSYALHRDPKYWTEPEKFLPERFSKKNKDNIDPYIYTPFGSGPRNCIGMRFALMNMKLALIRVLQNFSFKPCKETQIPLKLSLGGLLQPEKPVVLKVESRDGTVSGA
Chain of 3',5'-cyclic-AMP phosphodiesterase 4D (Q08499 whole entry): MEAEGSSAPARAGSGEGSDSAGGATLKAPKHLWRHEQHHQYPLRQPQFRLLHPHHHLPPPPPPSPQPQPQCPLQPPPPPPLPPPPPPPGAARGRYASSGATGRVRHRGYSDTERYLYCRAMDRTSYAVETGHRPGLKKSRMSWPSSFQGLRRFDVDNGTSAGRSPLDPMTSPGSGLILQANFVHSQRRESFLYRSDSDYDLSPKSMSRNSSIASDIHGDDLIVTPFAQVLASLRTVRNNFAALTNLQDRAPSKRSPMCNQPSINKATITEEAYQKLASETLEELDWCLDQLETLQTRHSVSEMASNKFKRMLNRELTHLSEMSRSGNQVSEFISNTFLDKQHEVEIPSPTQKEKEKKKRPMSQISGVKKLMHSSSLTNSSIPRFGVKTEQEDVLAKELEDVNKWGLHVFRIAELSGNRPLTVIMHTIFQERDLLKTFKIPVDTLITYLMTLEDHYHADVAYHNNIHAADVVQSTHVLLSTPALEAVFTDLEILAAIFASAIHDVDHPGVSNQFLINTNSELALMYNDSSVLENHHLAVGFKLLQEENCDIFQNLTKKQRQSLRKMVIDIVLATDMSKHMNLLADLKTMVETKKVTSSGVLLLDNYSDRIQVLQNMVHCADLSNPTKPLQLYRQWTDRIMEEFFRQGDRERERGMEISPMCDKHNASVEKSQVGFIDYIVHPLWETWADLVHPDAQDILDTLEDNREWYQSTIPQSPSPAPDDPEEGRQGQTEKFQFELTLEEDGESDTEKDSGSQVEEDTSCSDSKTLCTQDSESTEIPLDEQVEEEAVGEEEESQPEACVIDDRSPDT
Chain of Cytochrome P450 2C19 (P33261 whole entry): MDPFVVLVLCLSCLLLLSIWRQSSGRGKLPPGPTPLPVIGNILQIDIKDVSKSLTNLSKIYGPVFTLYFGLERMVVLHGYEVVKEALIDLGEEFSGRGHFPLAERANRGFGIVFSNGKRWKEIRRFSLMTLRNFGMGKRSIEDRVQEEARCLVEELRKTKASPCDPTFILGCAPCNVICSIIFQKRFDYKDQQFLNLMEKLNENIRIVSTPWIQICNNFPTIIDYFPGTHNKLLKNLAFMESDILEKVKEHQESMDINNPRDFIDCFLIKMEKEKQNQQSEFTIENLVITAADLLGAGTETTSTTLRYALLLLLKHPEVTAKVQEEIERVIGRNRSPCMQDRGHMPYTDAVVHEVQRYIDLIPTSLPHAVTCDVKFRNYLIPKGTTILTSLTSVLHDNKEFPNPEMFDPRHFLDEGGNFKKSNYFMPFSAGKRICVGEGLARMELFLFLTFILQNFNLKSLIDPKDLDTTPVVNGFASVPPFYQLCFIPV
Chain of Cytochrome P450 2C9 (P11712 whole entry): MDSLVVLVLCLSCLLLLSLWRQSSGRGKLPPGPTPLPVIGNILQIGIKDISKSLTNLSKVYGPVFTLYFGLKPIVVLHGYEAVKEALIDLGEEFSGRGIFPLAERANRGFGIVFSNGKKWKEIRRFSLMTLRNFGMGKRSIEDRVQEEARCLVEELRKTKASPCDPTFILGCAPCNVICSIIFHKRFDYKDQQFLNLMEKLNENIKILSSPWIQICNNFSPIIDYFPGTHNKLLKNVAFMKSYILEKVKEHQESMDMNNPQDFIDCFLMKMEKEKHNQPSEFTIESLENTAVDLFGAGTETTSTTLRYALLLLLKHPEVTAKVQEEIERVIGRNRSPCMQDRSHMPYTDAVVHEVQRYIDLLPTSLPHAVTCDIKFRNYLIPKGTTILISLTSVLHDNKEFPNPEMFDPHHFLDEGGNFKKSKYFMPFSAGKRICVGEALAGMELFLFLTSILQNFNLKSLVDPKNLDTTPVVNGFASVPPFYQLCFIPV

Broadly, the IC50 is the concentration that inhibits the measured activity by half. Higher therefore signals weaker potency in that assay. With `COc1ccc(-c2nc(C(=O)NCc3ccccc3)c(CN)o2)c2ccc(C(F)(F)F)nc12`, the IC50 in data set [1] is 1200 nM; in data set [2], 3.7 nM; in [3], 4800 nM.

Consider `COc1ccc(-c2nc(C(=O)NCc3ccc(F)cc3)c(CN)o2)c2ccc(C(F)(F)F)nc12`, for which the IC50 in data set [1] is 1300 nM; in [2] it was 4.1 nM; in [3] it was 2700 nM.

Turning to `COc1ccc(-c2nc(C(=O)NCc3ccc(Cl)cc3)c(CN)o2)c2ccc(C(F)(F)F)nc12`, the IC50 is 2100 nM in data set [1], 3.4 nM in data set [2] and 2700 nM in data set [3].

For `COc1ccc(-c2nc(C(=O)NCc3ccc(C#N)cc3)c(CN)o2)c2ccc(C(F)(F)F)nc12`, in [2], the 50% inhibitory concentration (IC50) was 26 nM.

In the case of `COc1ccc(-c2nc(C(=O)NCc3ccc(S(C)(=O)=O)cc3)c(CN)o2)c2ccc(C(F)(F)F)nc12`, the half-maximal inhibitory concentration (IC50) in [2] stood at 37 nM. This IC50 and that of the compound before are within 1.5-fold of each other.

Turning to `COc1ccc(-c2nc(C(=O)NCc3cccc(F)c3)c(CN)o2)c2ccc(C(F)(F)F)nc12`, the IC50 in data set [1] came out at 810 nM; in data set [2] it was 1.8 nM; in data set [3], 3900 nM.

Take `COc1ccc(-c2nc(C(=O)NCc3cccc(Cl)c3)c(CN)o2)c2ccc(C(F)(F)F)nc12`: the IC50 in [1] stood at 770 nM; in data set [2] it was 1.5 nM; in data set [3], 2100 nM.

Regarding `COc1ccc(-c2nc(C(=O)NCc3ccccc3F)c(CN)o2)c2ccc(C(F)(F)F)nc12`, the IC50 in [1] stood at 500 nM; in data set [2] it was 0.9 nM; in data set [3], 3600 nM.

As to `COc1ccc(-c2nc(C(=O)NCc3ccccc3Cl)c(CN)o2)c2ccc(C(F)(F)F)nc12`, the IC50 in [1] came to 610 nM; in data set [2], 1.2 nM; in [3], 2300 nM.

As to `COc1ccccc1CNC(=O)c1nc(-c2ccc(OC)c3nc(C(F)(F)F)ccc23)oc1CN`, the IC50 in data set [1] turned out to be 320 nM; in data set [2], 0.5 nM; in [3], 870 nM.

For the compound `COc1ccc(-c2nc(C(=O)NCc3c(F)cccc3F)c(CN)o2)c2ccc(C(F)(F)F)nc12`, the values for the IC50 in data set [1], in [2] and in data set [3] were 240 nM, 0.46 nM and 2500 nM, respectively.

For the compound `COc1ccc(-c2nc(C(=O)NCc3c(F)cccc3Cl)c(CN)o2)c2ccc(C(F)(F)F)nc12`, the figures for the IC50 in data set [1], in data set [2] and in data set [3] were 410 nM, 0.1 nM and 1300 nM, respectively.

Consider `COc1ccc(-c2nc(C(=O)NCc3ccc(F)cc3F)c(CN)o2)c2ccc(C(F)(F)F)nc12`, for which the IC50 in data set [1] was determined as 1000 nM; in [4], 0.7 nM; in data set [2], 0.6 nM; in data set [3] it was 2200 nM.

Take `COc1ccc(-c2nc(C(=O)NCc3ccc(Cl)cc3F)c(CN)o2)c2ccc(C(F)(F)F)nc12`: the IC50 in data set [1] worked out at 2200 nM; in data set [2] it was 2.7 nM; in [3], 2700 nM.

Turning to `COc1ccc(-c2nc(C(=O)NCc3ccc(Cl)cc3Cl)c(CN)o2)c2ccc(C(F)(F)F)nc12`, the IC50 is 1300 nM in data set [1], 4.3 nM in [2] and 1100 nM in data set [3].

In the case of `COc1ccc(-c2nc(C(=O)NCc3ccc(F)c(F)c3)c(CN)o2)c2ccc(C(F)(F)F)nc12`, the IC50 in data set [1] was 1300 nM; in [2], 2.6 nM; in data set [3], 2200 nM.

Take `COc1ccc(-c2nc(C(=O)NCc3ccc(Cl)cc3)c([C@H](C)N)o2)c2ccc(C(F)(F)F)nc12`: the IC50 in data set [1] is 650 nM; in [2], 0.35 nM; in [3] it was 1100 nM.

For the compound `COc1ccc(-c2nc(C(=O)NCc3cccc(F)c3)c([C@H](C)N)o2)c2ccc(C(F)(F)F)nc12`, the figures for the IC50 in data set [1], in data set [2] and in data set [3] were 160 nM, 0.3 nM and 1400 nM, respectively.

As for `COc1ccc(-c2nc(C(=O)NCc3ccccc3F)c([C@H](C)N)o2)c2ccc(C(F)(F)F)nc12`, the IC50 was found to be 80 nM in data set [1], 0.3 nM in [2] and 1100 nM in data set [3].

Regarding `COc1ccc(-c2nc(C(=O)NCc3c(F)cccc3F)c([C@H](C)N)o2)c2ccc(C(F)(F)F)nc12`, the IC50 was found to be 125 nM in [1], 0.05 nM in [2] and 1400 nM in data set [3].

Regarding `COc1ccc(-c2nc(C(=O)NCc3c(F)cccc3Cl)c([C@H](C)N)o2)c2ccc(C(F)(F)F)nc12`, the IC50 was found to be 120 nM in data set [1], 0.03 nM in data set [2] and 1600 nM in [3].

As a reminder, the ED50 is the midpoint of the dose-response relation. One may read the bioavailability as dose-corrected exposure relative to a reference, in per cent. The term Cmax denotes the peak of the concentration-time curve. `COc1ccc(-c2nc(C(=O)NCc3ccc(F)cc3F)c([C@H](C)N)o2)c2ccc(C(F)(F)F)nc12`: the IC50 is over 8000 nM at Cytochrome P450 2C9; 950 nM in [1]; over 8000 nM on Cytochrome P450 2C19; 0.6 nM in data set [6]; 0.06 nM in [2]; 2300 nM in [3]. Further, the IC50 on Cytochrome P450 2D6 and at Cytochrome P450 3A4 was over 8000 nM in each case. The ED50 in the data set on Rattus norvegicus is 0.1 mg/kg. Besides, in data set [5], the bioavailability came out at 24%. In addition, the Cmax in [7] is 960 nM.

Consider `COc1ccc(-c2nc(C(=O)NCc3ccc(Cl)cc3F)c([C@H](C)N)o2)c2ccc(C(F)(F)F)nc12`, for which the IC50 was 700 nM in data set [1], 0.7 nM in [2] and 1100 nM in [3].

With `COc1ccc(-c2nc(C(=O)NCc3ccc(Cl)cc3Cl)c([C@H](C)N)o2)c2ccc(C(F)(F)F)nc12`, the IC50 was 1700 nM in data set [1], 0.7 nM in data set [2] and 1800 nM in data set [3].

Consider `COc1ccc(-c2nc(C(=O)NCc3ccc(F)c(F)c3)c([C@H](C)N)o2)c2ccc(C(F)(F)F)nc12`, for which the IC50 in [1] is 1400 nM; in [2], 0.6 nM; in [3], 2000 nM.

Regarding `COc1ccc(-c2nc(C(=O)NCc3c(F)cc(F)cc3F)c([C@H](C)N)o2)c2ccc(C(F)(F)F)nc12`, the IC50 worked out at 500 nM in data set [1], 0.04 nM in [2] and 3400 nM in data set [3].

As for `CC[C@H](N)c1oc(-c2ccc(OC)c3nc(C(F)(F)F)ccc23)nc1C(=O)NCc1ccc(Cl)cc1`, the midpoint of inhibition in data set [2], the IC50, lay at 0.81 nM.

In turn, `COc1ccc(-c2nc(C(=O)NCc3ccc(Cl)cc3)c([C@@H](N)CO)o2)c2ccc(C(F)(F)F)nc12` returned an IC50 in data set [2] of 12.7 nM.

Consider `COc1ccc(-c2nc(C(=O)NCc3ccc(F)cc3F)c([C@@H](N)C(C)C)o2)c2ccc(C(F)(F)F)nc12`, for which the IC50 in data set [2] turned out to be 0.36 nM. Against the preceding compound, the IC50 is about 35-fold lower.

In data set [2], `COc1ccc(-c2nc(C(=O)N[C@H](CO)c3ccccc3)c(CN)o2)c2ccc(C(F)(F)F)nc12` yielded an IC50 of 1.6 nM. This IC50 is about 4.4-fold higher than that of the compound before.

In [2], `COc1ccc(-c2nc(C(=O)N[C@H](CO)c3ccccc3)c([C@H](C)N)o2)c2ccc(C(F)(F)F)nc12` yielded an IC50 of 0.11 nM. This IC50 lies about 15-fold lower than the previous one.

For the compound `COc1ccc(-c2nc(C(=O)N[C@H](CO)c3ccccc3)c([C@@H](C)N)o2)c2ccc(C(F)(F)F)nc12`, in data set [2], the IC50 amounted to 8.4 nM.

These data come from ChEMBL document CHEMBL2010662, “Discovery of oxazole-based PDE4 inhibitors with picomolar potency” (Bioorg Med Chem Lett, 2012).
